Laboratory results from ChEMBL document CHEMBL1201861, “Genomics of Drug Sensitity in Cancer screening data, Wellcome Trust Sanger Institute”.

Legend:
Assay in all cases: cells
UMC-11 = assay type: functional, cell-based, Homo sapiens; conditions: Homo sapiens, UMC-11
Description: SANGER: Inhibition of human UMC-11 cell growth in a cell viability assay.

LB831-BLC = assay type: functional, cell-based, Homo sapiens; conditions: Homo sapiens, LB831-BLC
Description: SANGER: Inhibition of human LB831-BLC cell growth in a cell viability assay.

CWR22R = assay type: functional, cell-based, Homo sapiens; conditions: Homo sapiens, 22Rv1
Description: SANGER: Inhibition of human 22RV1 cell growth in a cell viability assay.

NB10 = assay type: functional, cell-based, Homo sapiens; conditions: Homo sapiens, NB10
Description: SANGER: Inhibition of human NB10 cell growth in a cell viability assay.

KY821 = assay type: functional, cell-based; conditions: Homo sapiens
Description: SANGER: Inhibition of human KY821 cell growth in a cell viability assay.

OE19 = assay type: functional, cell-based, Homo sapiens; conditions: Homo sapiens, OE19
Description: SANGER: Inhibition of human OE19 cell growth in a cell viability assay.

BXPC-3 = assay type: functional, cell-based, Homo sapiens; conditions: Homo sapiens, BXPC-3
Description: SANGER: Inhibition of human BxPC-3 cell growth in a cell viability assay.

NCI-H1155 = assay type: functional, cell-based; conditions: Homo sapiens
Description: SANGER: Inhibition of human NCI-H1155 cell growth in a cell viability assay.

SNU1 = assay type: functional, cell-based; conditions: Homo sapiens
Description: SANGER: Inhibition of human NCI-SNU-1 cell growth in a cell viability assay.

BE-13 = assay type: functional, cell-based; conditions: Homo sapiens
Description: SANGER: Inhibition of human BE-13 cell growth in a cell viability assay.

G-402 = assay type: functional, cell-based, Homo sapiens; conditions: Homo sapiens, G-402
Description: SANGER: Inhibition of human G-402 cell growth in a cell viability assay.

SW-620 = assay type: functional, cell-based, Homo sapiens; conditions: Homo sapiens, SW-620
Description: SANGER: Inhibition of human SW620 cell growth in a cell viability assay.

NCI-H209 = assay type: functional, cell-based; conditions: Homo sapiens
Description: SANGER: Inhibition of human NCI-H209 cell growth in a cell viability assay.

P30-OHK = assay type: functional, cell-based; conditions: Homo sapiens
Description: SANGER: Inhibition of human P30-OHK cell growth in a cell viability assay.

NB13 = assay type: functional, cell-based, Homo sapiens; conditions: Homo sapiens, NB13
Description: SANGER: Inhibition of human NB13 cell growth in a cell viability assay.

Ramos-2G6-4C10 = assay type: functional, cell-based; conditions: Homo sapiens
Description: SANGER: Inhibition of human Ramos-2G6-4C10 cell growth in a cell viability assay.

EM-2 = assay type: functional, cell-based; conditions: Homo sapiens
Description: SANGER: Inhibition of human EM-2 cell growth in a cell viability assay.

ES3 = assay type: functional, cell-based, Homo sapiens; conditions: Homo sapiens, ES3
Description: SANGER: Inhibition of human ES3 cell growth in a cell viability assay.

CW-2 = assay type: functional, cell-based, Homo sapiens; conditions: Homo sapiens, CW-2
Description: SANGER: Inhibition of human CW-2 cell growth in a cell viability assay.

D-502MG = assay type: functional, cell-based, Homo sapiens; conditions: Homo sapiens, D-502MG
Description: SANGER: Inhibition of human D-502MG cell growth in a cell viability assay.

MLMA = assay type: functional, cell-based, Homo sapiens; conditions: Homo sapiens, MLMA
Description: SANGER: Inhibition of human MLMA cell growth in a cell viability assay.

MMAC-SF = assay type: functional, cell-based, Homo sapiens; conditions: Homo sapiens, MMAC-SF
Description: SANGER: Inhibition of human MMAC-SF cell growth in a cell viability assay.

SW1463 = assay type: functional, cell-based, Homo sapiens; conditions: Homo sapiens, SW1463
Description: SANGER: Inhibition of human SW1463 cell growth in a cell viability assay.

HCC1954 = assay type: functional, cell-based, Homo sapiens; conditions: Homo sapiens, HCC1954
Description: SANGER: Inhibition of human HCC1954 cell growth in a cell viability assay.

DMS-114 = assay type: functional, cell-based, Homo sapiens; conditions: Homo sapiens, DMS-114
AM-38 = assay type: functional, cell-based, Homo sapiens; conditions: Homo sapiens, AM-38
Description: SANGER: Inhibition of human AM-38 cell growth in a cell viability assay.

BT-474 = assay type: functional, cell-based, Homo sapiens; conditions: Homo sapiens, BT-474
Description: SANGER: Inhibition of human BT-474 cell growth in a cell viability assay.

8-MG-BA = assay type: functional, cell-based, Homo sapiens; conditions: Homo sapiens, 8-MG-BA
Description: SANGER: Inhibition of human 8-MG-BA cell growth in a cell viability assay.

EW-3 = assay type: functional, cell-based; conditions: Homo sapiens
Description: SANGER: Inhibition of human EW-3 cell growth in a cell viability assay.

M14 = assay type: functional, cell-based, Homo sapiens; conditions: Homo sapiens, M14
Description: SANGER: Inhibition of human M14 cell growth in a cell viability assay.

697 = assay type: functional, cell-based; conditions: Homo sapiens
Description: SANGER: Inhibition of human 697 cell growth in a cell viability assay.

HH = assay type: functional, cell-based; conditions: Homo sapiens
Description: SANGER: Inhibition of human HH cell growth in a cell viability assay.

LS-1034 = assay type: functional, cell-based, Homo sapiens; conditions: Homo sapiens, LS-1034
Description: SANGER: Inhibition of human LS-1034 cell growth in a cell viability assay.

Mo = assay type: functional, cell-based; conditions: Homo sapiens
Description: SANGER: Inhibition of human Mo-T cell growth in a cell viability assay.

NEC8 = assay type: functional, cell-based, Homo sapiens; conditions: Homo sapiens, NEC8
Description: SANGER: Inhibition of human NEC8 cell growth in a cell viability assay.

NCI-H1092 = assay type: functional, cell-based; conditions: Homo sapiens
Description: SANGER: Inhibition of human NCI-H1092 cell growth in a cell viability assay.

DMS-79 = assay type: functional, cell-based; conditions: Homo sapiens
Description: SANGER: Inhibition of human DMS-79 cell growth in a cell viability assay.

C2BBe1 = assay type: functional, cell-based, Homo sapiens; conditions: Homo sapiens, C2BBe1
Description: SANGER: Inhibition of human C2BBe1 cell growth in a cell viability assay.

MV4-11 = assay type: functional, cell-based, MV-4-11; conditions: Homo sapiens
Description: SANGER: Inhibition of human MV-4-11 cell growth in a cell viability assay.

U-87 MG = assay type: functional, cell-based, U-87MG ATCC; conditions: Homo sapiens
Description: SANGER: Inhibition of human U-87-MG cell growth in a cell viability assay.

NCI-H1581 = assay type: functional, cell-based, Homo sapiens; conditions: Homo sapiens, NCI-H1581
Description: SANGER: Inhibition of human NCI-H1581 cell growth in a cell viability assay.

COLO-684 = assay type: functional, cell-based; conditions: Homo sapiens
Description: SANGER: Inhibition of human COLO-684 cell growth in a cell viability assay.

SCC-4 = assay type: functional, cell-based, Homo sapiens; conditions: Homo sapiens, SCC-4
Description: SANGER: Inhibition of human SCC-4 cell growth in a cell viability assay.

FaDu = assay type: functional, cell-based, Homo sapiens; conditions: Homo sapiens, FaDu
Description: SANGER: Inhibition of human FADU cell growth in a cell viability assay.

NCI-H2170 = assay type: functional, cell-based, Homo sapiens; conditions: Homo sapiens, NCI-H2170
Description: SANGER: Inhibition of human NCI-H2170 cell growth in a cell viability assay.

U-251 = assay type: functional, cell-based, Homo sapiens; conditions: Homo sapiens, U-251
Description: SANGER: Inhibition of human U251 cell growth in a cell viability assay.

BHY = assay type: functional, cell-based, Homo sapiens; conditions: Homo sapiens, BHY
Description: SANGER: Inhibition of human BHY cell growth in a cell viability assay.

JEG-3 = assay type: functional, cell-based, Homo sapiens; conditions: Homo sapiens, JEG-3
Description: SANGER: Inhibition of human JEG-3 cell growth in a cell viability assay.

MDA-MB-175-VII = assay type: functional, cell-based, Homo sapiens; conditions: Homo sapiens, MDA-MB-175-VII
PANC-03-27 = assay type: functional, cell-based, Homo sapiens; conditions: Homo sapiens, PANC-03-27
Description: SANGER: Inhibition of human PANC-03-27 cell growth in a cell viability assay.

NCI-H1437 = assay type: functional, cell-based, Homo sapiens; conditions: Homo sapiens, NCI-H1437
Description: SANGER: Inhibition of human NCI-H1437 cell growth in a cell viability assay.

RCM-1 = assay type: functional, cell-based, Homo sapiens; conditions: Homo sapiens, RCM-1
Description: SANGER: Inhibition of human RCM-1 cell growth in a cell viability assay.

## CC(=O)O[C@@]12CO[C@@H]1C[C@H](O)[C@@]1(C)C(=O)[C@H](O)C3=C(C)[C@@H](OC(=O)[C@H](O)[C@@H](NC(=O)OC(C)(C)C)c4ccccc4)C[C@@](O)([C@@H](OC(=O)c4ccccc4)[C@H]21)C3(C)C [DOCETAXEL]
UMC-11
  IC50: > 0.01 µM
LB831-BLC
  IC50: 0.00148 µM
CWR22R
  IC50: 0.00315 µM
NB10
  IC50: > 0.01 µM
KY821
  IC50: 0.00551 µM
OE19
  IC50: 0.00559 µM
BXPC-3
  IC50: 0.00251 µM
NCI-H1155
  IC50: > 0.01 µM
SNU1
  IC50: 0.00197 µM
BE-13
  IC50: 0.00393 µM
G-402
  IC50: 0.000706 µM
SW-620
  IC50: 0.00397 µM
NCI-H209
  IC50: 0.00286 µM
P30-OHK
  IC50: > 0.01 µM
NB13
  IC50: 0.00107 µM
Ramos-2G6-4C10
  IC50: > 0.01 µM
EM-2
  IC50: 0.00623 µM
ES3
  IC50: 0.00277 µM
CW-2
  IC50: > 0.01 µM
D-502MG
  IC50: 0.0041 µM
MLMA
  IC50: 0.00355 µM
MMAC-SF
  IC50: 0.00586 µM
SW1463
  IC50: > 0.01 µM
HCC1954
  IC50: > 0.01 µM
DMS-114
  IC50: 0.00696 µM
AM-38
  IC50: > 0.01 µM
BT-474
  IC50: > 0.01 µM
8-MG-BA
  IC50: 0.000589 µM
EW-3
  IC50: 0.000745 µM
M14
  IC50: 0.00191 µM
697
  IC50: 0.00172 µM
HH
  IC50: > 0.01 µM
LS-1034
  IC50: > 0.01 µM
Mo
  IC50: > 0.01 µM
NEC8
  IC50: 0.000561 µM
NCI-H1092
  IC50: > 0.01 µM
DMS-79
  IC50: > 0.01 µM
C2BBe1
  IC50: 0.00182 µM
MV4-11
  IC50: 0.00174 µM
U-87 MG
  IC50: 0.00355 µM
NCI-H1581
  IC50: 0.00217 µM
COLO-684
  IC50: > 0.01 µM
SCC-4
  IC50: 0.000739 µM
FaDu
  IC50: 0.0051 µM
NCI-H2170
  IC50: 0.00535 µM
U-251
  IC50: 0.0025 µM
BHY
  IC50: 0.00216 µM
JEG-3
  IC50: 0.00282 µM
MDA-MB-175-VII
  IC50: > 0.01 µM
PANC-03-27
  IC50: 0.00154 µM
NCI-H1437
  IC50: 0.0026 µM
RCM-1
  IC50: > 0.01 µM

## CN(Cc1cnc2nc(N)nc(N)c2n1)c1ccc(C(=O)N[C@@H](CCC(=O)O)C(=O)O)cc1 [METHOTREXATE]
UMC-11
  IC50: > 0.2 µM
LB831-BLC
  IC50: > 0.2 µM
CWR22R
  IC50: > 0.2 µM
NB10
  IC50: > 0.2 µM
OE19
  IC50: > 0.2 µM
BXPC-3
  IC50: > 0.2 µM
NCI-H1155
  IC50: > 0.2 µM
SNU1
  IC50: 0.00751 µM
BE-13
  IC50: 0.0387 µM
G-402
  IC50: > 0.2 µM
SW-620
  IC50: > 0.2 µM
NCI-H209
  IC50: > 0.2 µM
P30-OHK
  IC50: 0.0436 µM
NB13
  IC50: > 0.2 µM
Ramos-2G6-4C10
  IC50: 0.0269 µM
EM-2
  IC50: 0.0571 µM
ES3
  IC50: > 0.2 µM
CW-2
  IC50: > 0.2 µM
D-502MG
  IC50: > 0.2 µM
MLMA
  IC50: 0.0965 µM
MMAC-SF
  IC50: > 0.2 µM
SW1463
  IC50: > 0.2 µM
HCC1954
  IC50: > 0.2 µM
DMS-114
  IC50: > 0.2 µM
AM-38
  IC50: > 0.2 µM
BT-474
  IC50: > 0.2 µM
8-MG-BA
  IC50: > 0.2 µM
M14
  IC50: > 0.2 µM
697
  IC50: 0.0126 µM
HH
  IC50: 0.0316 µM
LS-1034
  IC50: > 0.2 µM
Mo
  IC50: > 0.2 µM
NEC8
  IC50: > 0.2 µM
NCI-H1092
  IC50: > 0.2 µM
DMS-79
  IC50: > 0.2 µM
C2BBe1
  IC50: > 0.2 µM
MV4-11
  IC50: 0.0194 µM
U-87 MG
  IC50: > 0.2 µM
NCI-H1581
  IC50: > 0.2 µM
COLO-684
  IC50: 0.0375 µM
SCC-4
  IC50: > 0.2 µM
FaDu
  IC50: > 0.2 µM
NCI-H2170
  IC50: > 0.2 µM
U-251
  IC50: > 0.2 µM
BHY
  IC50: > 0.2 µM
JEG-3
  IC50: > 0.2 µM
MDA-MB-175-VII
  IC50: > 0.2 µM
PANC-03-27
  IC50: > 0.2 µM
NCI-H1437
  IC50: > 0.2 µM
RCM-1
  IC50: > 0.2 µM
